The target of test [1] is T1, human IGF1R (hIGF1R) (Homo sapiens, UniProt P08069).
T1 construct: containing amino acid residues 957-1367 of human IGF1R; made in house; host or cells: Sf9 cells (baculovirus)
The test is described as follows: TR-FRET kinase assay of purified hIGF1R. It is filed as biochemical. The conditions noted are these: activated hIGF1R 0.5 nM, 10 μM ATP, values given as pIC50 category, read-out: IGF-1R pIC50 (converted).

The target in test [2] is T2, human IR (hIR) (Homo sapiens, UniProt P06213).
T2 construct: containing amino acid residues 979-1382 of human IR; made in house; host or cells: Sf9 cells (baculovirus), same process as hIGF1R
Put plainly: TR-FRET kinase assay of purified hIR. The conditions noted are these: activated hIR 0.5 nM, 10 μM ATP, values given as pIC50 category. It is filed as biochemical. A general note: Time-resolved FRET reads energy transfer from a long-lived donor to a nearby acceptor.

For test [3], the system named is Colo205. The test is described as follows: Inhibition of cell proliferation (CellTiter-Glo or InCell analyzer), Colo205. It is filed as cell-based. The conditions noted are these: Homo sapiens, COLO 205, 72 h / 3 days, values given as IC50 category. Summed up:
In one
A general note: ATP-based viability assays read luminescence as a measure of living cells.

pIC50: −log10 of the molar value. Where “and” joins values, the source holds several entries; their conditions need not be identical. Identical values can stand only once.

T2 sequence (P06213 979-1382): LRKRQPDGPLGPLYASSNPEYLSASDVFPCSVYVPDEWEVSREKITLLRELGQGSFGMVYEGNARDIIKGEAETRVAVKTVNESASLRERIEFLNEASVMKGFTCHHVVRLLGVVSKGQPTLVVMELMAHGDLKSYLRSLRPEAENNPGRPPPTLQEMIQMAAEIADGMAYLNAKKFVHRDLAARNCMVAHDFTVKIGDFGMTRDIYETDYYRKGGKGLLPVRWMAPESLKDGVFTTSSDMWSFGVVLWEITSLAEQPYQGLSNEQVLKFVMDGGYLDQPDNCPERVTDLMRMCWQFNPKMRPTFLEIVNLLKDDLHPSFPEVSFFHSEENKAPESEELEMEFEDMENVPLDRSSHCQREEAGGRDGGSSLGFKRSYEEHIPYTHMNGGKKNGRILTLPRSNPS
T1 sequence (P08069 957-1367): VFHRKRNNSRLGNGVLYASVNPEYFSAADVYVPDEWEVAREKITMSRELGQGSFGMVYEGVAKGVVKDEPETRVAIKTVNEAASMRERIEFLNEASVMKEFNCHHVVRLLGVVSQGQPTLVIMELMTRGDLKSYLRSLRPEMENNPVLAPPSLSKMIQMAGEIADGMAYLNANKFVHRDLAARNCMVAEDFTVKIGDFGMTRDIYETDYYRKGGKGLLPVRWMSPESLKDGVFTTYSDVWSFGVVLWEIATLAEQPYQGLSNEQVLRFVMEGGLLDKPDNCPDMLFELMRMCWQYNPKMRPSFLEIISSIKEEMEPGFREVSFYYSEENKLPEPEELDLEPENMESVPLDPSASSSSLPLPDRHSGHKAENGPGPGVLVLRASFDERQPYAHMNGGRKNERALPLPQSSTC

As usually defined, the pIC50 is the IC50 on a negative log10 scale, so that one unit is a factor of ten. Low values mean a large IC50, high ones a small IC50. As to `COc1cc(N2CCC(N3CC[C@@H](F)C3)CC2)ccc1Nc1nc(Nc2cc(F)ccc2C(N)=O)c2cc[nH]c2n1` [Example 76, 4-fluoro-2-[(2-{[4-{4-[(3R)-3-fluoro-1-pyrrolidinyl]-1-piperidinyl}-2-(methyloxy)phenyl]amino}-1H-pyrrolo[2,3-d]pyrimidin-4-yl)amino]benzamide], the IC50 in test [1] is 0.251 to 1 nM. The pIC50 in test [2] was 9.00 to 9.60; in test [3], 6.00 to 6.60.

Turning to `COc1cc(N2CCOCC2)ccc1Nc1nc(Nc2cc(F)c(F)cc2C(N)=O)c2cc[nH]c2n1` [Example 104, 4,5-difluoro-2-[(2-{[2-(methyloxy)-4-(4-morpholinyl)phenyl]amino}-1H-pyrrolo[2,3-d]pyrimidin-4-yl)amino]benzamide], the IC50 in test [1] was 0.251 to 1 nM. Besides, the pIC50 in test [2] was 9.00 to 9.60; in test [3] it was less than 6.00.

As to `COc1cc2c(cc1Nc1nc(Nc3cccc(F)c3C(=O)NC(C)C)c3cc[nH]c3n1)N(C(=O)CN(C)C)CC2` [Example 158, 2-[(2-{[1-(N,N-dimethylglycyl)-5-(methyloxy)-2,3-dihydro-1H-indol-6-yl]amino}-1H-pyrrolo[2,3-d]pyrimidin-4-yl)amino]-6-fluoro-N-(1-methylethyl)benzamide], the IC50 in test [1] is 1.26 to 3.98 nM. For the same compound, the pIC50 in test [2] was 8.40 to 8.90; in test [3], 6.00 to 6.60.

`CNC(=O)c1c(Nc2nc(Nc3cc4c(cc3OC)CCCN4C(=O)CN(C)C)nc3[nH]ccc23)ccc(F)c1F` [Example 163, 6-[(2-{[1-(N,N-dimethylglycyl)-6-(methyloxy)-1,2,3,4-tetrahydro-7-quinolinyl]amino}-1H-pyrrolo[2,3-d]pyrimidin-4-yl)amino]-2,3-difluoro-N-methylbenzamide]: the IC50 in test [1] is 1.26 to 3.98 nM. Moreover, the pIC50 in test [2] is 8.40 to 8.90; in test [3], 6.00 to 6.60.

In the case of `CCC(C)N1CCc2cc(OC)c(Nc3nc(Nc4cccc(F)c4C(N)=O)c4cc[nH]c4n3)cc2C1` (centres unmarked) [Example 237, 2-fluoro-6-[(2-{[6-(methyloxy)-2-(1-methylpropyl)-1,2,3,4-tetrahydro-7-isoquinolinyl]amino}-1H-pyrrolo[2,3-d]pyrimidin-4-yl)amino]benzamide], the IC50 in test [1] is 1.26 to 3.98 nM. Further, the pIC50 in test [2] was 8.40 to 8.90; in test [3], 6.00 to 6.60.

For `COc1cc(N2CCOCC2)ccc1Nc1nc(Nc2cc(F)ccc2C(N)=O)c2cc[nH]c2n1` [Example 83, 4-fluoro-2-[(2-{[2-(methyloxy)-4-(4-morpholinyl)phenyl]amino}-1H-pyrrolo[2,3-d]pyrimidin-4-yl)amino]benzamide], the IC50 in test [1] is 1.26 to 3.98 nM. In addition, the pIC50 is 8.40 to 8.90 in test [2] and less than 6.00 in test [3].

On to `COc1cc2c(cc1Nc1nc(Nc3cccc(F)c3C(N)=O)c3cc[nH]c3n1)N(C(=O)CN1CCCC1)CC2` [Example 138, 2-fluoro-6-[(2-{[5-(methyloxy)-1-(1-pyrrolidinylacetyl)-2,3-dihydro-1H-indol-6-yl]amino}-1H-pyrrolo[2,3-d]pyrimidin-4-yl)amino]benzamide], for which the IC50 in test [1] was 1.26 to 3.98 nM. Also, the pIC50 is 9.00 to 9.60 in test [2] and 6.00 to 6.60 in test [3].

Take `COc1cc(N2CCC(N3CCN(S(C)(=O)=O)CC3)CC2)ccc1Nc1nc(Nc2cccc(F)c2C(N)=O)c2cc[nH]c2n1` [Example 113, 2-fluoro-6-({2-[(2-(methyloxy)-4-{4-[4-(methylsulfonyl)-1-piperazinyl]-1-piperidinyl}phenyl)amino]-1H-pyrrolo[2,3-d]pyrimidin-4-yl}amino)benzamide]: the IC50 in test [1] was 1.26 to 3.98 nM. The results for the pIC50 in test [2] and in test [3] were 9.00 to 9.60 and greater than 6.60, respectively.

Regarding `COc1cc(N2CCC(C3CCN(CCS(C)(=O)=O)CC3)CC2)ccc1Nc1nc(Nc2cccc(F)c2C(N)=O)c2cc[nH]c2n1` [Example 112, 2-fluoro-6-({2-[(2-(methyloxy)-4-{1′-[2-(methylsulfonyl)ethyl]-4,4′-bipiperidin-1-yl}phenyl)amino]-1H-pyrrolo[2,3-d]pyrimidin-4-yl}amino)benzamide], the IC50 in test [1] was 1.26 to 3.98 nM. In addition, the pIC50 in test [2] was 8.40 to 8.90; in test [3] it was greater than 6.60.

For `COc1cc(N2CCN(C(C)C)CC2)c(F)cc1Nc1nc(Nc2cccc(F)c2C(N)=O)c2cc[nH]c2n1` [Example 48, 2-fluoro-6-[(2-{[5-fluoro-4-[4-(1-methylethyl)-1-piperazinyl]-2-(methyloxy)phenyl]amino}-1H-pyrrolo[2,3-d]pyrimidin-4-yl)amino]benzamide], the IC50 in test [1] was 1.26 to 3.98 nM. The pIC50 in test [3] was 6.00 to 6.60.

Consider `COc1cc2c(cc1Nc1nc(Nc3cccc(F)c3C(N)=O)c3cc[nH]c3n1)CN(C(=O)CN(C)C)CC2` [Example 123, 2-[(2-{[2-(N,N-dimethylglycyl)-6-(methyloxy)-1,2,3,4-tetrahydro-7-isoquinolinyl]amino}-1H-pyrrolo[2,3-d]pyrimidin-4-yl)amino]-6-fluorobenzamide], for which the IC50 in test [1] was 1.26 to 3.98 nM. Further, the pIC50 in test [2] was 8.40 to 8.90; in test [3], 6.00 to 6.60.

As to `CNC(=O)c1c(F)cccc1Nc1nc(Nc2cc(NC(=O)CN(C)C)ccc2OC)nc2[nH]ccc12` [Example 245, 2-[(2-{[5-[(N,N-dimethylglycyl)amino]-2-(methyloxy)phenyl]amino}-1H-pyrrolo[2,3-d]pyrimidin-4-yl)amino]-6-fluoro-N-methylbenzamide], the IC50 in test [1] is 1.26 to 3.98 nM. The pIC50 is 9.00 to 9.60 and 8.40 to 8.90 in test [2]; 6.00 to 6.60 in test [3].

With `CCN(CC)CC(=O)N1CCc2cc(OC)c(Nc3nc(Nc4cccc(F)c4C(N)=O)c4cc[nH]c4n3)cc21` [Example 136, 2-[(2-{[1-(N,N-diethylglycyl)-5-(methyloxy)-2,3-dihydro-1H-indol-6-yl]amino}-1H-pyrrolo[2,3-d]pyrimidin-4-yl)amino]-6-fluorobenzamide], the IC50 in test [1] is 1.26 to 3.98 nM. The pIC50 in test [2] is 8.40 to 8.90; in test [3] it was 6.00 to 6.60.

For `CCCN1CCCC(c2ccc(Nc3nc(Nc4cc(F)ccc4C(N)=O)c4cc[nH]c4n3)c(OC)c2)C1` (centres unmarked) [Example 71, 4-fluoro-2-[(2-{[2-(methyloxy)-4-(1-propyl-3-piperidinyl)phenyl]amino}-1H-pyrrolo[2,3-d]pyrimidin-4-yl)amino]benzamide], the IC50 in test [1] is 0.251 to 1 nM. Further, the pIC50 in test [2] was 9.00 to 9.60; in test [3], greater than 6.60.

As for `COc1c(Nc2nc(Nc3cccc(F)c3C(N)=O)c3cc[nH]c3n2)ccc(N2CCN(C(C)C)CC2)c1F` [Example 51, 2-fluoro-6-[(2-{[3-fluoro-4-[4-(1-methylethyl)-1-piperazinyl]-2-(methyloxy)phenyl]amino}-1H-pyrrolo[2,3-d]pyrimidin-4-yl)amino]benzamide], in test [1], the IC50 is 1.26 to 3.98 nM. The compound also gave a pIC50 in test [3] of 6.00 to 6.60.

`COc1cc(N2CCN(CCS(C)(=O)=O)CC2)c(C)cc1Nc1nc(Nc2cccc(F)c2C(N)=O)c2cc[nH]c2n1` [Example 52, 2-fluoro-6-({2-[(5-methyl-2-(methyloxy)-4-{4-[2-(methylsulfonyl)ethyl]-1-piperazinyl}phenyl)amino]-1H-pyrrolo[2,3-d]pyrimidin-4-yl}amino)benzamide]: the IC50 in test [1] was 1.26 to 3.98 nM. For the same compound, in test [3], the pIC50 is less than 6.00.

Regarding `COc1cc(N2CCN(C(C)C)CC2)ccc1Nc1nc(Nc2cccc(F)c2C(N)=O)c2cc[nH]c2n1` [Example 46, 2-fluoro-6-[(2-{[4-[4-(1-methylethyl)-1-piperazinyl]-2-(methyloxy)phenyl]amino}-1H-pyrrolo[2,3-d]pyrimidin-4-yl)amino]benzamide], the IC50 in test [1] is 1.26 to 3.98 nM. The compound further gave a pIC50 in test [3] greater than 6.60.

These data come from patent US7981903B2, “2-[2-{phenylamino}-1H-pyrrolo[2,3-D]pyrimidin-4-yl)amino] benzamide derivatives as IGF-1R inhibitors for the treatment of cancer” (GlaxoSmithKline LLC, priority 2007, dated 2011).
